Data reported in patent publication EP4699622A1, “COMBINATION OF ANTIBODY-DRUG CONJUGATE AND OTHER MEDICINE” (Daiichi Sankyo Company, Limited, priority 2023, dated 2024).
Read-outs that look alike come from different tables or passages of the source.

Tests used:
[1] = tested on: CD37-positive human chronic lymphocytic leukemia cell line JVM-13; assay: Antitumor effect - (4): JVM-13 subcutaneous xenograft; conditions: JVM-13 xenograft; for TGI (%): Day 35, grouping Day 14, ADC (1) 0.3 mg/kg i.v. once, rituximab 10 mg/kg i.v. once, bendamustine 12.5 mg/kg i.p. day of grouping and next day, venetoclax 100 mg/kg oral every day, ibrutinib 200 mg/kg oral every day; for CR (%) on final day of observation / Change from baseline (%): ADC (1) 0.3 mg/kg i.v., rituximab 10 mg/kg i.v., bendamustine 12.5 mg/kg i.p. x2, venetoclax 100 mg/kg oral daily, ibrutinib 200 mg/kg oral daily; for Change from baseline (%): tumor volume on Day 35 vs Day 14 baseline
[2] = tested on: CD37-positive human chronic lymphocytic leukemia cell line JVM-13; assay: Cell growth inhibition by combination with BTK inhibitors (Celltiter-Glo 2.0); type: cell-based; conditions: JVM13, 144 h, read-out: D2 (50% cell growth inhibition concentration, BTK inhibitor alone)
Procedure: (§1) During the culture period, the cells were cultured under conditions of 37°C and 5% CO2 in all the cases. The cells thus cultured for 6 days were reacted using Celltiter-Glo 2.0 Cell Viability Assay (Promega Corp,) in accordance with the attached manual, followed by the measurement of the amount of luminescence from each well using a plate reader (Envision 2105 XCite multimode plate reader, PerkinElmer, Inc.). […] Cell growth inhibition rate (%) = (T/C) × 100 [formula]
(§2) From the calculated 50% cell growth inhibition concentrations (anti-CD37 antibody-drug conjugate (1) alone: D1, each BTK inhibitor alone: D2, anti-CD37 antibody-drug conjugate (1) in the combination: d1, each BTK inhibitor drug in the combination: d2), a combination index (CI) was calculated according to the following formula, and assessed as a synergistic effect with CI < 1, an additive effect with CI = 1, and an antagonizing effect with CI > 1 (see Adv. Enzyme Regul. 1984, P. 2227-55) . CI = (d1/D1) + (d2/D2) [formula]

[3] = tested on: CD37-positive human chronic lymphocytic leukemia cell line JVM-2; assay: as above; type: cell-based; conditions: read-out: D2 (50% cell growth inhibition concentration, BTK inhibitor alone)
Procedure: as §1, §2

[4] = tested on: CD37-positive human chronic lymphocytic leukemia cell line JVM-3; assay: as above; type: cell-based; conditions: read-out: D2 (50% cell growth inhibition concentration, BTK inhibitor alone)
Procedure: as §1, §2

Row | IC50 ([2]; JVM-13, 6 days culture) | IC50 ([3]; 144 h, JVM-2, 6 days culture) | IC50 ([4]; 144 h, JVM-3, 6 days culture) | SMILES | TGI (%) [1] | CR (%) on final day of observation [1] | Change from baseline (%) [1] | IC50 [2] | IC50 ([3]; JVM-2, 144 h) | IC50 ([4]; JVM-3, 144 h)
1 | – | – | – | CC1(C)CCC(CN2CCN(c3ccc(C(=O)NS(=O)(=O)c4ccc(NCC5CCOCC5)c([N+](=O)[O-])c4)c(Oc4cnc5[nH]ccc5c4)c3)CC2)=C(c2ccc(Cl)cc2)C1 [Venetoclax, venetoclax] | 25% | 0% | 490.9% | – | – | –
2 | 7.15 µM | 25.8 µM | 16.6 µM | CC#CC(=O)N1CCC[C@H]1c1nc(-c2ccc(C(=O)Nc3ccccn3)cc2)c2c(N)nccn12 [Acalabrutinib, acalabrutinib] | – | – | – | – | – | –
3 | – | – | – | C=CC(=O)N1CCC[C@@H](n2nc(-c3ccc(Oc4ccccc4)cc3)c3c(N)ncnc32)C1 [Ibrutinib, ibrutinib] | -12% | 0% | 776.7% | 0.58 µM | 1.19 µM | 0.27 µM
4 | 2.83 µM | 6.86 µM | 17.9 µM | C=CC(=O)N1CCC([C@@H]2CCNc3c(C(N)=O)c(-c4ccc(Oc5ccccc5)cc4)nn32)CC1 [Zanubrutinib, zanubrutinib] | – | – | – | – | – | –
